Assay results reported in patent US12378294B2, “IL-4 derived peptides for use in the treatment of obesity” (SERODUS APS, priority 2022, dated 2025).
“And” between values parts separate entries of the source, which are not always exact repeats. Equal values may be shown once. Where no end group is shown, it is not given here.

How the values were obtained:
type II IL-4R = biological target: T1, type II IL-4R (Homo sapiens, UniProt P24394); conditions: cited from earlier work
T1 sequence (P24394 26-825): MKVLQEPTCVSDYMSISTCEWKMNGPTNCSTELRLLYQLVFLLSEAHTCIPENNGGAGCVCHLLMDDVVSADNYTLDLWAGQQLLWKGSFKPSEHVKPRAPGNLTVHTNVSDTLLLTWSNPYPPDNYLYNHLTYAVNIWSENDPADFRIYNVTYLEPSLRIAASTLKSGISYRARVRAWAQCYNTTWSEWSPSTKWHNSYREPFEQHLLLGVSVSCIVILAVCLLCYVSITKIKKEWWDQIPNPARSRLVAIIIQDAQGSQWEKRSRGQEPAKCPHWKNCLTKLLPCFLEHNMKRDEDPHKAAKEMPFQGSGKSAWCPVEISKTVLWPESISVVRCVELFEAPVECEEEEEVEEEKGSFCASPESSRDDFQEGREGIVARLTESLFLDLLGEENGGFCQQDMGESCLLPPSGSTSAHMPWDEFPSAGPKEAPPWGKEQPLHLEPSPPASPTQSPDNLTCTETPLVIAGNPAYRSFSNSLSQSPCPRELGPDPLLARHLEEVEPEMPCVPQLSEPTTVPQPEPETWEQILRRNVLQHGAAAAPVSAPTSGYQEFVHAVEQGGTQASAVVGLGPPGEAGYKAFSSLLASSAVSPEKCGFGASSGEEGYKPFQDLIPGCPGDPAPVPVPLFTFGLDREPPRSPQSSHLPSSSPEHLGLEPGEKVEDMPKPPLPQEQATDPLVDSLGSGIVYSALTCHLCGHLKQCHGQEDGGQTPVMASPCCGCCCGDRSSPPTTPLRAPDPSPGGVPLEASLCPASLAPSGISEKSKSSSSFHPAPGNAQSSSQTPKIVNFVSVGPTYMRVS

macrophages = conditions: cited from earlier work
IL-4 receptors = biological target: T2, IL-4 receptors (Homo sapiens, UniProt P24394); conditions: cited from earlier work
T2 sequence (P24394 26-825): T1 sequence (P24394 26-825)

type I IL-4R = biological target: T3, type I IL-4R (Homo sapiens, UniProt P24394); conditions: cited from earlier work
T3 sequence (P24394 26-825): T1 sequence (P24394 26-825)

[1] = system: female mice (BKS.Cg-Dock7m+/+Leptin db/db BLKS); assay: Effect of an IL-4 derived peptide on body weight in db/db mice; format: in vivo; conditions: for Effect on weight / weight gain compared to vehicle: treatment group vs vehicle/placebo group, 77 days s.c. once daily
Experimental: 30 female mice (BKS.Cg-Dock7m+/+Leptin db/db BLKS, 5 weeks of age) were transferred to the Gubra Research animal unit in Denmark. Throughout the habituation and study period, the animals were housed in a light-, temperature-, and -humidity-controlled room with free access to food and water. All animal experiments were conducted in accordance with Gubra bioethical guidelines, which are fully compliant with internationally accepted principles for the care and use of laboratory animals. The body weight of the animals was recorded at the start of the study (baseline), on day 13, day 27, day 34, day 43, day 60 and day 77 (termination of study).
Compound A was prepared using standard solid phase peptide synthesis (SPPS) procedures. Compound A was provided by Phlogo ApS, Copenhagen, Denmark (10 mg/ml miliQ water diluted to the dose formulations). Vehicle was miliQ:PBS 1:5.
The mice were randomized into a vehicle group (n=15) and a 10 mg/kg Compound A (n=15). The compound as well as the vehicle was administered subcutaneously once daily. On day 27, the dose was lowered to 5 mg/kg Compound A (n=15), and on day 43, the dose was lowered to 2.5 mg/kg Compound A (n=15).

Substance	Activity on type II IL-4R (type II IL-4R)	Macrophage activation (macrophages)	Binding to the IL-4 receptors (IL-4 receptors)	Activity on type I IL-4R (type I IL-4R)	Δ Weight ([1]; individual animals 1-15 of treatment group, day 77 minus baseline, s.c. once daily, 10 then 5 then 2.5 mg/kg)	Weight at day 77 ([1]; individual animals 1-15 of treatment group, s.c. once daily, 10 mg/kg, lowered to 5 mg/kg on day 27 and 2.5 mg/kg on day 43, day 77)	Δ Weight (g), mean ([1]; mean of treatment group (n=15), baseline to day 77, s.c. once daily, 10 then 5 then 2.5 mg/kg, placebo mean 5.76) [g]	Weight at day 77 (g), mean ([1]; mean of treatment group (n=15), s.c. once daily, 10 then 5 then 2.5 mg/kg, placebo mean 50.64) [g]	Weight increase during the study period ([1]; treatment group average, baseline to day 77, placebo 12.8%) [%]	Effect on weight / weight gain compared to vehicle [1]	Effect on weight / weight gain compared to vehicle ([1]; listed as compound A)
AQFHRHKQLIRFLKRA [SEQ ID NO:1, 16-residue IL-4 derived peptide, variant of AA71-AA86 of IL-4]	antagonist	inhibiting macrophage activation	capable of binding to the IL-4 receptors	high affinity partial agonist							
Compound A: dimer of SEQ ID NO:1 (AQFHRHKQLIRFLKRA) connected through a linker (lysine-beta-alanine) at the C-terminals (also: dimer of two chains joined at the C-termini through a Lys-βAla linker)					1.80 g and -1.60 g and 7.30 g and 4.40 g and 4.50 g and 2.70 g and -1.90 g and 8.00 g and 4.20 g and 11.20 g and 11.40 g and 3.20 g and -1.30 g and 0.90 g and 1.40 g	54.30 g (2×) and 47.30 g and 48.40 g and 52.50 g and 59.10 g and 47.60 g and 37.50 g and 57.30 g and 51.80 g and 58.10 g and 59.40 g and 52.40 g and 49.20 g and 49.40 g	3.51	48.66	7.8	significantly decreased the weight	decreased the weight gain
